These results are taken from patent US20220039386A1, “METHOD FOR CONTROLLING PESTS OF RAPESEED PLANTS” (BASF SE, priority 2018, published 2022).

One assay relates to Phyllotreta striolata. In words: Canola foliar treatment, striped flea beetle mortality. Type of assay: in vivo. Here is the method: 1. Canola-Striped Flea Beetle, Phyllotreta striolata:
Canola foliar treatment: Before application, construction paper was placed at the base of each plant to catch spray solution and therefore preventing beetle contact with contaminated soil and pots (allowing only the plants to be treated). Canola seedlings were treated at the first true leaf stage in a spray chamber at 300 L/ha with a three nozzle (TX-6) flat boom. Plants were allowed to dry, paper was removed, and plants were transferred to a greenhouse to hold over night. At infest, three plants (replicates) per treatment were placed into a bucket. Twenty adult flea beetles (mix sex) were aspirated into a vial and placed in the center of the bucket. The container was closed and placed into a Percival at 25 C 50% RH. Mortality evaluation was made on 6 DAI.

The next assay relates to Meligethes aeneus. In words: Oilseed rape inflorescence dip (foliar application), pollen beetle control. Type of assay: in vivo. The procedure: 2. Oilseed Rape—Pollen Beetle, Meligethes aeneus:
Foliar application: Test units consisted of a plastic cup with a hole in the bottom and a glass vial below that hole, containing irrigation water. Oil seed rape inflorescences were dipped into the treatment solutions and after drying placed inside the plastic cups. Each cup was sealed with a perforated, transparent lid. Ten adult pollen beetles, field collected, were added to each cup. Each treatment was replicated three times. Pollen beetle survival was assessed 3 days after application.

SMILES strings stand for the structures. Some results are limits rather than exact numbers.

One may read the mortality as the percentage killed.

For `C[n+]1c([O-])c(-c2ccccc2)c(=O)n2c1SC[C@@H]2c1cnc(Cl)s1` [Compound I-R-1], the mortality at 600 ppm in the assay with Phyllotreta striolata (Phyllotreta striolata, in Brassica napus, 600 ppm, foliar spray 300 L/ha on canola seedlings at first true leaf, adult flea beetles, evaluation 6 DAI) was no less than 65%. Moreover, in the assay with Phyllotreta striolata (canola foliar treatment, Table 1), the “flea beetle control (summary in words)” value is “good flea beetle control”. The “Percent control (%) A03” value with Meligethes aeneus (72 g ai/ha, oil seed rape inflorescences dipped, field collected adult pollen beetles, assessed 3 days after application) came out at 47.8 a %. In addition, the “efficacy against the adults of pollen beetle (summary in words)” value in the assay with Meligethes aeneus (foliar application) was “good efficacy”.
